The text below walks through data of US10676431B2, “Phenylpyrrolidinone formyl peptide 2 receptor agonists” (BRISTOL-MYERS SQUIBB COMPANY, priority 2018, dated 2020).

pEC50: −log10 of the molar value.

Assay [1] has as its target human FPR2 (Homo sapiens (Human), UniProt P25090). Nature of the assay: FPR2 cyclic adenosine monophosphate (cAMP) assay. The class given is cell-based. The note with it: CHO cells overexpressing human FPR2; forskolin 5 μM, IBMX 200 μM; inhibition of cAMP production, HTRF; read-out: hFPR2 cAMP2 EC50. As for the experimental part:
(§1) FPR2 and FPR1 Cyclic Adenosine Monophosphate (cAMP) Assays. A mixture of forskolin (5 μM final for FPR2 or 10 μM final for FPR1) and IBMX (200 μM final) were added to 384-well Proxiplates (Perkin-Elmer) pre-dotted with test compounds in DMSO (1% final) at final concentrations in the range of 0.020 nM to 100 μM. Chinese Hamster Ovary cells (CHO) overexpressing human FPR1 or human FPR2 receptors were cultured in F-12 (Ham's) medium supplemented with 10% qualified FBS, 250 μg/ml zeocin and 300 μg/ml hygromycin (Life Technologies). Reactions were initiated by adding 2,000 human FPR2 cells per well or 4,000 human FPR1 cells per well in Dulbecco's PBS (with calcium and magnesium) (Life Technologies) supplemented with 0.1% BSA (Perkin-Elmer). The reaction mixtures were incubated for 30 min at room temperature. The level of intracellular cAMP was determined using the HTRF HiRange cAMP assay reagent kit (Cisbio) according to manufacturer's instruction. Solutions of cryptate conjugated anti-cAMP and d2 fluorophore-labelled cAMP were made in a supplied lysis buffer separately. Upon completion of the reaction, the cells were lysed with equal volume of the d2-cAMP solution and anti-cAMP solution. After a 1-h room temperature incubation, time-resolved fluorescence intensity was measured using the Envision (Perkin-Elmer) at 400 nm excitation and dual emission at 590 nm and 665 nm. A calibration curve was constructed with an external cAMP standard at concentrations ranging from 1 μM to 0.1 pM by plotting the fluorescent intensity ratio from 665 nm emission to the intensity from the 590 nm emission against cAMP concentrations. The potency and activity of a compound to inhibit cAMP production was then determined by fitting to a 4-parametric logistic equation from a plot of cAMP level versus compound concentrations.

For assay [2], the target named is human FPR1 (Homo sapiens (Human), UniProt P21462). Nature of the assay: FPR1 cyclic adenosine monophosphate (cAMP) assay. The note with it: CHO cells overexpressing human FPR1; forskolin 10 μM, IBMX 200 μM; inhibition of cAMP production, HTRF; read-out: hFPR1 cAMP EC50. The class given is cell-based. The protocol: as §1, with “After a 1-h room temperature incubation, time-resolved fluorescence intensity was measured using the Envision (Perkin-Elmer) at 400 nm excitation and dual emission at 590 nm and 665 nm. A calibration curve was constructed with an external cAMP standard at concentrations ranging from 1 μM to 0.1 pM by plotting the fluorescent intensity ratio from 665 nm emission to the intensity from the 590 nm emission against cAMP concentrations.” left out
human FPR1, sequence (P21462 whole entry): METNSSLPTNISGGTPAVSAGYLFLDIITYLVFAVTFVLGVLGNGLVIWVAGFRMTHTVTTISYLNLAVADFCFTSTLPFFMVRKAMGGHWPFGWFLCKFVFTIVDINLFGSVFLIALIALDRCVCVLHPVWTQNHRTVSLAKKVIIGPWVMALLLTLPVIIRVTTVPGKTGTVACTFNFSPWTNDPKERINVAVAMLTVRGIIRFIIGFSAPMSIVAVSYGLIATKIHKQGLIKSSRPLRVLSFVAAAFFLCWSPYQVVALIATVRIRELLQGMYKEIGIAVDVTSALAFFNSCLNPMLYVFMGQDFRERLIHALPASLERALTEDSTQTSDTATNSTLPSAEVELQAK

human FPR2, sequence (P25090 whole entry): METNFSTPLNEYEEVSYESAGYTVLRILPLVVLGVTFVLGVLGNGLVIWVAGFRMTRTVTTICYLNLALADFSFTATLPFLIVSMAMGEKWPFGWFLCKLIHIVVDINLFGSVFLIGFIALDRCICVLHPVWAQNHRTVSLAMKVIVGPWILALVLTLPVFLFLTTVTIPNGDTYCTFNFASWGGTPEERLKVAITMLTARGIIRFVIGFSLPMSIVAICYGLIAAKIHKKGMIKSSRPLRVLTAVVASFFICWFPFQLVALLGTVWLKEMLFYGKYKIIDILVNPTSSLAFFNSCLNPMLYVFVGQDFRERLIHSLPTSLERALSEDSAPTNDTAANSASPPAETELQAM

Consider `CS(=O)(=O)Nc1ccccc1-c1ccc(N2CC[C@@H](NC(=O)Nc3ncc(Cl)cc3F)C2=O)c(F)c1F` [Example 13], for which the figures for the pEC50 in assay [1] and in assay [2] were 8.19 and 5.60, respectively.
Consider `COc1c(N2CC[C@@H](NC(=O)Nc3ccc(Cl)cc3F)C2=O)ccc(-c2ccccc2NS(C)(=O)=O)c1F` [Example 36], for which the pEC50 in assay [1] was 8.33; in assay [2] it was 7.16.
The corresponding values for `CP(C)(=O)c1ccccc1-c1ccc(N2CC[C@@H](NC(=O)Nc3ccc(Cl)cc3F)C2=O)c(Cl)c1F` [Example 99] are 9.10 and 6.62.
Taken in the same sequence, the figures for `CC1C[C@@H](NC(=O)Nc2ccc(C(F)(F)F)cc2F)C(=O)N1c1ccc(-c2cccnc2P(C)(C)=O)c(F)c1F` (stereo partly shown) [Example 120] were 9.11 and 6.80.
Taken in the same sequence, the figures for `CC(C)c1cc(-c2ccccc2P(C)(C)=O)ccc1N1CC[C@@H](NC(=O)Nc2ccc(C(F)(F)F)cc2F)C1=O` [Example 60] were 8.43 and 6.92.
In the case of `CC(C)c1cc(-c2ccccc2P(C)(C)=O)ccc1N1CC[C@@H](NC(=O)Nc2ccc(Cl)cc2F)C1=O` [Example 45], the results for the pEC50 in assay [1] and in assay [2] were 8.52 and 6.85, respectively.
Taken in the same sequence, the figures for `CS(=O)(=O)Nc1ccccc1-c1ccc(N2CC[C@@H](NC(=O)Nc3ccc(C(F)(F)F)cc3)C2=O)cc1` [Example 14] were 8.14 and 6.22.
Taken in the same sequence, the figures for `CCP(=O)(CC)c1ccccc1-c1ccc(N2CC[C@@H](NC(=O)Nc3ccc(C(F)(F)F)cc3F)C2=O)c(F)c1F` [Example 68] were 9.28 and 6.82.
Consider `CP(C)(=O)c1c(F)cccc1-c1ccc(N2CC[C@@H](NC(=O)Nc3ccc(C(F)(F)F)cc3F)C2=O)c(F)c1Cl` [Example 86], for which the pEC50 in assay [1] is 9.07; in assay [2], 7.68.
The corresponding values for `CP(C)(=O)c1ccccc1-c1ccc(N2CC[C@@H](NC(=O)Nc3ccc(Cl)cn3)C2=O)c(F)c1F` [Example 49] are 8.25 and 5.47.
As to `CP(C)(=O)c1ncncc1-c1ccc(N2CC[C@@H](NC(=O)Nc3ccc(Cl)cc3F)C2=O)c(F)c1F` [Example 84], the pEC50 in assay [1] is 8.22; in assay [2], 6.55.
Taken in the same sequence, the figures for `CP(C)(=O)c1ccccc1-c1ccc(N2CC[C@@H](NC(=O)Nc3ccc(Cl)cc3F)C2=O)c(F)c1F` [Example 25, (R)-1-(4-chloro-2-fluorophenyl)-3-(1-(2′-(dimethylphosphoryl)-2,3-difluoro-[1,1′-biphenyl]-4-yl)-2-oxopyrrolidin-3-yl)urea] were 9.28 and 6.59.
The corresponding values for `CS(=O)(=O)Nc1ccccc1-c1ccc(N2CC[C@@H](NC(=O)Nc3ccc(Cl)cc3F)C2=O)c(C2CC2)c1` [Example 26] are 9.26 and 7.33.
Taken in the same sequence, the figures for `O=C(Nc1ccc(Cl)cc1F)N[C@@H]1CCN(c2ccc(-c3ccccc3F)c(F)c2F)C1=O` [Example 21] were 7.51 and 6.41.
In the case of `CP(C)(=O)c1ccccc1-c1ccc(N2CC(CO)[C@@H](NC(=O)Nc3ccc(Cl)cc3F)C2=O)c(F)c1F` (stereo partly shown) [Example 125], the pEC50 is 9.00 in assay [1] and 6.74 in assay [2].
As for `CC1(C)CN(c2ccc(-c3ccccc3P(C)(C)=O)c(F)c2F)C(=O)[C@@H]1NC(=O)Nc1ccc(Cl)cc1F` [Example 103], the pEC50 in assay [1] is 9.24; in assay [2], 6.46.
`CP(C)(=O)c1ccccc1-c1ccc(N2CC[C@@H](NC(=O)Nc3ccc(Cl)cc3F)C2=O)c(F)c1C(F)F` [Example 95]: the pEC50 in assay [1] is 7.49; in assay [2], 6.70.
Taken in the same sequence, the figures for `CP(C)(=O)c1ccccc1-c1ccc(N2CC[C@@H](NC(=O)Nc3ccc(C(F)(F)F)cc3F)C2=O)c(F)c1C1CC1` [Example 89, (R)-1-(1-(2-Cyclopropyl-2′-(dimethylphosphoryl)-3-fluoro-[1,1′-biphenyl]-4-yl)-2-oxopyrrolidin-3-yl)-3-(2-fluoro-4-(trifluoromethyl)phenyl)urea] were 8.36 and 7.60.
Taken in the same sequence, the figures for `CP(C)(=O)c1ncncc1-c1ccc(N2CC[C@@H](NC(=O)Nc3ccc(C(F)(F)F)cc3F)C2=O)c(F)c1F` [Example 93] were 7.92 and 6.11.
The corresponding values for `CC(N)c1cccc(-c2ccc(N3CC[C@@H](NC(=O)Nc4ccc(Cl)cc4F)C3=O)c(F)c2F)c1` (stereo partly shown) [Example 50] are 7.85 and 6.19.
`COC[C@@H]1C[C@@H](NC(=O)Nc2ccc(Cl)cc2F)C(=O)N1c1ccc(-c2ccccc2P(C)(C)=O)c(F)c1F` [Example 30]: the pEC50 in assay [1] was 9.66; in assay [2] it was 7.08.
The corresponding values for `CC(C)c1cc(-c2cccnc2NS(C)(=O)=O)ccc1N1CC[C@@H](NC(=O)Nc2ccc(Cl)cc2F)C1=O` [Example 47] are 8.55 and 7.19.
The corresponding values for `O=C(Nc1ccc(Cl)cc1F)N[C@@H]1CCN(c2ccc(-c3ccccc3CO)c(F)c2F)C1=O` [Example 2] are 8.38 and 6.44.
Taken in the same sequence, the figures for `CP(C)(=O)c1ccccc1-c1ccc(N2CC[C@@H](NC(=O)Nc3ccc(OC(F)(F)F)cc3)C2=O)c(F)c1F` [Example 51] were 8.09 and 5.89.
On to `CC1C[C@@H](NC(=O)Nc2ccc(Cl)cc2F)C(=O)N1c1ccc(-c2ccccc2S(C)(=O)=O)c(F)c1F` (stereo partly shown) [Example 129], for which the pEC50 in assay [1] is 8.62; in assay [2], 7.72.
Taken in the same sequence, the figures for `CC(=O)NC(C)c1cccc(-c2ccc(N3CC[C@@H](NC(=O)Nc4ccc(Cl)cc4F)C3=O)c(F)c2F)c1` (stereo partly shown) [Example 44] were 7.37 and 6.35.
The corresponding values for `CS(=O)(=O)c1ccccc1-c1ccc(N2C(=O)[C@H](NC(=O)Nc3ccc(Cl)cc3F)C[C@H]2CO)c(F)c1F` [Example 42] are 9.00 and 6.66.
For the molecule `CP(C)(=O)c1ccccc1-c1ccc(N2CC[C@@H](NC(=O)Nc3ccc(Cl)cc3F)C2=O)c2c1OC(F)(F)O2` [Example 106], the values for the pEC50 in assay [1] and in assay [2] were 8.51 and 8.46, respectively.
The corresponding values for `COc1c(-c2ccccc2NS(C)(=O)=O)ccc(N2CC[C@@H](NC(=O)Nc3ccc(Cl)cc3F)C2=O)c1F` [Example 34] are 8.39 and 7.59.
The corresponding values for `CC1C[C@@H](NC(=O)Nc2ccc(C(F)(F)F)cc2F)C(=O)N1c1ccc(-c2cccnc2P(C)(C)=O)c(F)c1F` (stereo partly shown) [Example 128] are 9.00 and 7.62.
The corresponding values for `CC(N)c1cccc(-c2ccc(N3CC[C@@H](NC(=O)Nc4ccc(Cl)cc4)C3=O)c(F)c2F)c1` (stereo partly shown) [Example 12] are 8.60 and 6.35.
In the case of `CP(C)(=O)c1ccccc1-c1ccc(N2CC[C@@H](NC(=O)Nc3csc(Cl)c3)C2=O)c(F)c1F` [Example 133], the pEC50 in assay [1] was 6.82; in assay [2], below 5.30.
In the case of `CP(C)(=O)c1ccccc1-c1ccc(N2CC[C@@H](NC(=O)Nc3ccc(C(F)(F)F)cc3F)C2=O)c(F)c1F` [Example 57, (R)-1-(1-(2′-(dimethylphosphoryl)-2,3-difluoro-[1,1′-biphenyl]-4-yl)-2-oxopyrrolidin-3-yl)-3-(2-fluoro-4-(trifluoromethyl)phenyl)urea], the pEC50 in assay [1] is 9.02; in assay [2], 6.00.
The corresponding values for `CP(C)(=O)c1ccccc1-c1ccc(N2C(=O)[C@@H](NC(=O)Nc3ccc(Cl)cc3F)C[C@H]2CO)c(F)c1F` [Example 111] are 7.52 and 6.27.
Turning to `CC1C[C@@H](NC(=O)Nc2ccc(Cl)cc2F)C(=O)N1c1ccc(-c2cccnc2P(C)(C)=O)c(F)c1F` (stereo partly shown) [Example 122], the pEC50 in assay [1] was 9.09; in assay [2], 6.21.
